Data set [1] concerns ovariectomy-induced osteoporotic mice. In kind it is in vivo. The note with it: μCT, mean ± SEM, 10 mg/kg weekly IP, 9 weeks.
For data set [2] the following is noted: cited from earlier work.
Data set [3] deals with human primary osteoclasts. As to the kind of experiment: human primary osteoclast differentiation (RANKL, TRAP staining). The format is cell-based. The conditions noted are these: 0.001-10 μM, 7 days, 30 ng/mL RANKL. The method, then:
Human bone marrow was obtained from 4 OA patients who underwent hip replacement surgery and all protocols were approved by the NYU School of Medicine’s IRB. Precursor cells were flushed out from femoral head with DMEM media with 10% fetal bovine serum (FBS), and 100 U/ml of penicillin and streptomycin (Lonza, Belgium) in sterile conditions and incubated for 48h non-adherent cells were collected and differentiated to osteoclasts and adherents cell were differentiated to osteoblasts as previously described.
Osteoclast differentiation was assessed by TRAP staining by incubating PFA fixed samples with TRAP buffer (0.1M acetate buffer, 0.3M sodium tartrate, 10mg/ml Naphthol AS-MX phosphate, 0.1% Triton X-100, 0.3mg/ml Fast Red Violet LB (Sigma-Aldrich, St. Louis, MO, USA)) for 10 min. Images were taken in a Leica (Morrisville, NC, USA) inverted microscope.

Data set [4] concerns UHMWPE-induced osteolytic mice (WT). The experiment in a line: UHMWPE wear particle-induced osteolysis (OL) in WT mice calvaria. In kind it is in vivo, mouse. The note with it: doses <10mg/kg/week, data not shown.
In data set [5] the test system is human primary osteoclasts. Set-up: method as in PMID 23647065, PMID 25573752. The note with it: previously demonstrated; cited from earlier work.

Read-outs that look alike come from different tables or passages of the source. Marks after values point to notes of the source that are not given here. Bounds are passed on as bounds.

Here are results for three molecules from article PMC9733060, “Novel alendronate-CGS21680 conjugate reduces bone resorption and induces new bone formation in post-menopausal osteoporosis and inflammatory osteolysis mouse models” (Arthritis Research & Therapy, 2022).

`NCCCC(O)(P(=O)(O)O)P(=O)(O)O` [Alendronate, alendronic acid]: in data set [1] (L5 vertebra trabecular bone), the BS/BV is given as 71.26 ± 2.80* 1/mm, the BV/TV was 12.34 ± 0.74 %, the Tb.N was 2.60 ± 0.21 * 1/mm and the Tb.Pf is recorded as 13.73 ± 1.23 # 1/mm. In data set [1] (L5 vertebra trabecular bone), this molecule came in with a Tb.Sp of 0.298 ± 0.012 μm and a Tb.Th of 0.047 ± 0.002 μm. In data set [1] (femur cortical bone), the BV is reported as 0.442 ± 0.014 * mm^3, the BV/TV was determined as 44.50 ± 1.03 and the TV amounted to 0.994 ± 0.042 mm^3. For the same molecule, in data set [1] (femur trabecular bone), the BS/BV is 89.18 ± 4.61 1/mm, the BV/TV is 0.771 ± 0.210 %, the Tb.N is on record as 0.164 ± 0.043 # 1/mm and the Tb.Pf is given as 37.43 ± 2.48 1/mm. In addition, in data set [1] (femur trabecular bone), the Tb.Sp is given as 0.702 ± 0.100 # μm and the Tb.Th turned out to be 0.0468 ± 0.0014 μm. Besides, the “time for kidneys to excrete the amount not taken up by bone tissues” value in data set [2] is recorded as not above 24 h. Besides, the “elimination from bone tissue” value in data set [2] (humans) is “up to 12 years”. The “inhibition of osteoclast differentiation (anti-osteoclastogenic properties)” value in data set [3] is on record as “more potent than AlenP”.
Consider `CCNC(=O)[C@H]1O[C@@H](n2cnc3c(N)nc(NCCc4ccc(CCC(=O)O)cc4)nc32)[C@H](O)[C@@H]1O` [CGS21680, 2-[p-(2-carboxyethyl)-phenethylamino]-5'-N-ethylcarboxamido adenosine], for which the “effect on bone density in the affected areas” value in data set [4] is reported as “none of the doses tested <10mg/kg/week had any effect on bone density”.
Regarding `Nc1nc(NCCc2ccc(O)cc2)nc2nc(-c3ccco3)nn12` [ZM21385], the “effect on osteoclast differentiation” value in data set [5] is “increases osteoclast differentiation”.
